Assays:
Format in all cases: cell-based
RS4;11-BCL-2 D103E cells = experiment: Cell proliferation assay (MTS), RS4;11-BCL-2 D103E engineered cells; conditions: Homo sapiens, 72 h, read-out: RS4, 11 BCL2-D103E IC50
From the text: MTS testing kit was purchased from Promega (Madison, WI, USA). The RPMI-1640, Fetal bovine serum and Penicillin-Streptomycin were purchased from BI (Biological Industries, Beit Haemek, Israel). Puromycin was purchased from Beyotime (shanghai, China). Dimethyl sulfoxide (DMSO) was purchased from Sigma (St. Louis., MO, USA). RS4;11-BCL-2 G101V (Cobioer Lot. #: CBD2021063013P4), RS4;11-BCL-2 D103E (Cobioer Lot. #: CBD2021063013P4), RS4;11-BCL-2 D103Y (Cobioer Lot. #: CBD2022012101P4) and RS4;11-BCL-2 F104L (Cobioer Lot. #: CBD2021063014P4) cells were cultured in RPMI1640 supplemented with 1 ug/mL puromycin, 100 U/mL Penicillin-Streptomycin and 10% FBS.
To investigate whether a compound is able to inhibit the activity of BCL-2 mutation in cells, a mechanism-based assay using engineered cell lines stably overexpressing BCL-2 mutation (RS4;11-BCL-2 G101V, RS4;11-BCL-2 D103E, RS4;11-BCL-2 D103Y, and RS4;11-BCL-2 F104L) was developed. In this assay, the inhibition of BCL-2 mutation was reflected by the inhibition of cell proliferation of engineered RS4;11 cells. Cells were plated into 96-well plates at optimized cell density (RS4;11-BCL-2 G101V: 5000 cells/well; RS4;11-BCL-2 D103E: 7500 cells/well; RS4;11-BCL-2 D103Y: 7500 cells/well; RS4;11-BCL-2 F104L: 5000 cells/well). Plates were incubated at 37° C., with 5% CO2 for 4 h (RS4;11-BCL-2 G101V, RS4;11-BCL-2 F104L) and 24 h (RS4;11-BCL-2 D103E, RS4;11-BCL-2 D103Y), respectively. Compounds were serially diluted and added to the plates with the final concentrations of 10000, 3333.3, 1111.1, 370.4, 123.5, 41.2, 13.7, 4.6 and 1.5 nM. Plates were incubated at 37° C., with 5% CO2 for 120 h (RS4; 11-BCL-2 G101V, RS4; 11-BCL-2 F104L) and 72 h (RS4;11-BCL-2 D103E, RS4;11-BCL-2 D103Y), respectively. 20 μl MTS was added into each well and the plates were incubated at 37° C., with 5% CO2 exactly for 2 h. The absorbance was measured by a microplate reader at 490 nm. IC50 values were calculated using GraphPad Prism 8.0 software.

Toledo cells = experiment: Cell proliferation assay (MTS), Toledo cells; conditions: Homo sapiens, 72 h
Method in brief: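 Toledo cells (RPMI-1640, 10% FBS) seeded at 30000 cells/well, rested 4 h, then exposed 72 h at 37 °C, 5% CO2 to compound at nine final concentrations, 1.5–10000 nM. Viability by MTS (2 h), absorbance at 490 nm. IC50 from the concentration-response.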

RS4;11-BCL-2 G101V cells = experiment: Cell proliferation assay (MTS), RS4;11-BCL-2 G101V engineered cells; conditions: Homo sapiens, 120 h, read-out: RS4, 11 BCL2-G101V IC50
Method in brief: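 Cells were plated, allowed to settle 4 h (G101V, F104L) or 24 h (D103E, D103Y), and treated with serially diluted compound (10000 down to 1.5 nM). After 120 h or 72 h respectively at 37 °C, MTS was added for 2 h and absorbance at 490 nm gave IC50 values.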

Row | SMILES | IC50 (RS4;11-BCL-2 D103E cells) [nM] | IC50 (RS4;11-BCL-2 G101V cells) [nM] | IC50 (Toledo cells) [nM]
1 | COc1nc2[nH]cc(F)c2cc1Oc1cc(N2CCC3(CC2)CC(N2CCN(C4CCC(O)CC4)C[C@H]2c2ccccc2C(C)C)C3)ccc1C(=O)NS(=O)(=O)c1cnc(NC[C@H]2CC[C@](C)(O)CC2)c([N+](=O)[O-])c1 (single isomer, unassigned) [Example 331] | 1 | – | –
2 | CCOc1nc2[nH]cc(F)c2cc1Oc1cc(N2CCC3(CC2)CC(N2CCN(Cc4ccc(Cl)cc4)C[C@H]2c2ccccc2C(C)C)C3)ccc1C(=O)NS(=O)(=O)c1cnc(NC[C@H]2CC[C@](C)(O)CC2)c([N+](=O)[O-])c1 [Example 231, 4-(2-((R)-4-(4-chlorobenzyl)-2-(2-isopropylphenyl)piperazin-1-yl)-7-azaspiro[3.5]nonan-7-yl)-2-((6-ethoxy-3-fluoro-1H-pyrrolo[2,3-b]pyridin-5-yl)oxy)-N-((6-((((1r,4r)-4-hydroxy-4-methylcyclohexyl)methyl)amino)-5-nitropyridin-3-yl)sulfonyl)benzamide] | – | 1 | 1
3 | CCOc1nc2[nH]cc(F)c2cc1Oc1cc(N2CCC3(CC2)CC(N2CCN(Cc4ccc(F)cc4)C[C@H]2c2ccccc2C(C)C)C3)ccc1C(=O)NS(=O)(=O)c1cnc(NC[C@H]2CC[C@](C)(O)CC2)c([N+](=O)[O-])c1 [Example 234, 2-((6-ethoxy-3-fluoro-1H-pyrrolo[2,3-b]pyridin-5-yl)oxy)-4-(2-((R)-4-(4-fluorobenzyl)-2-(2-isopropylphenyl)piperazin-1-yl)-7-azaspiro[3.5]nonan-7-yl)-N-((6-((((1r,4r)-4-hydroxy-4-methylcyclohexyl)methyl)amino)-5-nitropyridin-3-yl)sulfonyl)benzamide] | – | 1 | 1
4 | CCOc1nc2[nH]cc(F)c2cc1Oc1cc(N2CCC3(CC2)CC(N2CCN(Cc4ccc(C#N)cc4)C[C@H]2c2ccccc2C(C)C)C3)ccc1C(=O)NS(=O)(=O)c1cnc(NC[C@H]2CC[C@](C)(O)CC2)c([N+](=O)[O-])c1 [Example 235, 4-(2-((R)-4-(4-cyanobenzyl)-2-(2-isopropylphenyl)piperazin-1-yl)-7-azaspiro[3.5]nonan-7-yl)-2-((6-ethoxy-3-fluoro-1H-pyrrolo [2,3-b]pyridin-5-yl)oxy)-N-((6-((((1r,4r)-4-hydroxy-4-methylcyclohexyl)methyl)amino)-5-nitropyridin-3-yl)sulfonyl)benzamide] | – | 1 | 1
5 | CC(C)c1ccccc1[C@@H]1CN(C[C@@H]2COCCO2)CCN1C1CC2(CCN(c3ccc(C(=O)NS(=O)(=O)c4cnc(NC[C@H]5CC[C@](C)(O)CC5)c([N+](=O)[O-])c4)c(Oc4cnc5[nH]cc(F)c5c4)c3)CC2)C1 [Example 335, 4-(2-((R)-4-(((R)-1,4-dioxan-2-yl)methyl)-2-(2-isopropylphenyl)piperazin-1-yl)-7-azaspiro[3.5]nonan-7-yl)-2-((3-fluoro-1H-pyrrolo[2,3-b]pyridin-5-yl)oxy)-N-((6-((((1r,4r)-4-hydroxy-4-methylcyclohexyl)methyl)amino)-5-nitropyridin-3-yl)sulfonyl)benzamide] | – | 1 | 1
6 | COc1nc2[nH]cc(F)c2cc1Oc1cc(N2CCC3(CC2)CC(N2CCN(Cc4cc5c(cn4)OCCO5)C[C@H]2c2ccccc2C(C)C)C3)ccc1C(=O)NS(=O)(=O)c1cnc(NC[C@H]2CC[C@](C)(O)CC2)c([N+](=O)[O-])c1 [Example 338, 4-(2-((R)-4-((2,3-dihydro-[1,4]dioxino[2,3-c]pyridin-7-yl)methyl)-2-(2-isopropylphenyl)piperazin-1-yl)-7-azaspiro[3.5]nonan-7-yl)-2-((3-fluoro-6-methoxy-1H-pyrrolo[2,3-b]pyridin-5-yl)oxy)-N-((6-((((1r,4r)-4-hydroxy-4-methylcyclohexyl)methyl)amino)-5-nitropyridin-3-yl)sulfonyl)benzamide] | – | 1 | 1
7 | CC(C)c1ccccc1[C@@H]1CN(Cc2cc3c(cn2)OCCO3)CCN1C1CC2(CCN(c3ccc(C(=O)NS(=O)(=O)c4cnc(NC[C@H]5CC[C@](C)(O)CC5)c([N+](=O)[O-])c4)c(Oc4cnc5[nH]cc(F)c5c4)c3)CC2)C1 [Example 341, 4-(2-((R)-4-((2,3-dihydro-[1,4]dioxino[2,3-c]pyridin-7-yl)methyl)-2-(2-isopropylphenyl)piperazin-1-yl)-7-azaspiro[3.5]nonan-7-yl)-2-((3-fluoro-1H-pyrrolo[2,3-b]pyridin-5-yl)oxy)-N-((6-((((1r,4r)-4-hydroxy-4-methylcyclohexyl)methyl)amino)-5-nitropyridin-3-yl)sulfonyl)benzamide] | – | 1 | 1

More lines, main results first:

Row | IC50 (RS4;11-BCL-2 D103E cells) [nM] | IC50 (RS4;11-BCL-2 G101V cells) [nM] | SMILES | IC50 (Toledo cells) [nM]
8 | 1 | – | COc1nc2[nH]cc(F)c2cc1Oc1cc(N2CCC3(CC2)CC(N2CCN(Cc4ccnc(C(C)(F)F)c4)C[C@H]2c2ccccc2C(C)C)C3)ccc1C(=O)NS(=O)(=O)c1cnc(NC[C@H]2CC[C@](C)(O)CC2)c([N+](=O)[O-])c1 [Example 149, 4-(2-((R)-4-((2-(1,1-difluoroethyl)pyridin-4-yl)methyl)-2-(2-isopropylphenyl)piperazin-1-yl)-7-azaspiro[3.5]nonan-7-yl)-2-((3-fluoro-6-methoxy-1H-pyrrolo[2,3-b]pyridin-5-yl)oxy)-N-((6-((((1r,4r)-4-hydroy-4-methylcyclohexyl)methyl)amino)-5-nitropyridin-3-yl)sulfonyl)benzamide] | –
9 | 1 | – | [2H]C([2H])([2H])Oc1cc(CN2CCN(C3CC4(CCN(c5ccc(C(=O)NS(=O)(=O)c6cnc(NC[C@H]7CC[C@](C)(O)CC7)c([N+](=O)[O-])c6)c(Oc6cc7c(F)c[nH]c7nc6OC)c5)CC4)C3)[C@H](c3ccccc3C(C)C)C2)ccn1 [Example 164, 2-((3-fluoro-6-methoxy-1H-pyrrolo[2,3-b]pyridin-5-yl)oxy)-N-((6-((((1r,4r)-4-hydroxy-4-methylcyclohexyl)methyl)amino)-5-nitropyridin-3-yl)sulfonyl)-4-(2-((R)-2-(2-isopropylphenyl)-4-((2-(methoxy-d3)pyridin-4-yl)methyl)piperazin-1-yl)-7-azaspiro[3.5]nonan-7-yl)benzamide] | –
10 | – | 1 | CCOc1nc2[nH]cc(F)c2cc1Oc1cc(N2CCC3(CC2)CC(N2CCN(Cc4ccnc(OC)c4)C[C@H]2c2ccccc2C(C)C)C3)ccc1C(=O)NS(=O)(=O)c1cnc(NC[C@H]2CC[C@](C)(O)CC2)c([N+](=O)[O-])c1 [Example 241, 2-((6-ethoxy-3-fluoro-1H-pyrrolo[2,3-b]pyridin-5-yl)oxy)-N-((6-((((1r,4r)-4-hydroxy-4-methylcyclohexyl)methyl)amino)-5-nitropyridin-3-yl)sulfonyl)-4-(2-((R)-2-(2-isopropylphenyl)-4-((2-methoxypyridin-4-yl)methyl)piperazin-1-yl)-7-azaspiro[3.5]nonan-7-yl)benzamide] | 1
11 | – | 1 | COc1nc2[nH]cc(F)c2cc1Oc1cc(N2CCC3(CC2)CC(N2CCN(Cc4ccc5c(c4)CCO5)C[C@H]2c2ccccc2C(C)C)C3)ccc1C(=O)NS(=O)(=O)c1cnc(NC[C@H]2CC[C@](C)(O)CC2)c([N+](=O)[O-])c1 [Example 323, 4-(2-((R)-4-((2,3-dihydrobenzofuran-5-yl)methyl)-2-(2-isopropylphenyl)piperazin-1-yl)-7-azaspiro[3.5]nonan-7-yl)-2-((3-fluoro-6-methoxy-1H-pyrrolo[2,3-b]pyridin-5-yl)oxy)-N-((6-((((1r,4r)-4-hydroxy-4-methylcyclohexyl)methyl)amino)-5-nitropyridin-3-yl)sulfonyl)benzamide] | 1

Source: patent US20250122191A1, “COMPOUNDS AS BCL-2 INHIBITORS” (Fochon Biosciences, Ltd, priority 2021, published 2025)
